Experimental data reported in patent US10857105B2, “Compounds and compositions for intracellular delivery of therapeutic agents” (ModernaTX, Inc., priority 2017, dated 2020).

What was measured:
modified luciferase = assay: Luciferase expression in liver, lung, spleen and femur 6 hours after intravenous administration to mice; type: in vivo; settings: 6 hours after intravenous 0.5 mpk, mice
Outline: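 Mice (n=3) got a single 0.5 mpk IV dose of each nanoparticle composition, with MC3 and PBS controls alongside. Organ luminescence flux was read 6 h post-dose.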

[1] = Residual lipid levels in rat liver and spleen (UPLC-MS); type: in vivo; settings: for % Lipid Remaining in liver, 48 h, 2 mpk: assuming 300 g rat and 15 g liver
Protocol: At 48 h liver tissue was harvested for lipid quantification. To pre-weighed tissues, Milli-Q water was added (900 μL water per 100 mg tissue). Tissues were homogenized using an Omni probe homogenizer until uniform. 50 μL of samples and matrix calibration standards were aliquoted into a 96-well plate. 50 μL of blank matrix for matrix blanks and control blanks were aliquoted. 400 μL IS spiking solution were manually added to all samples except matrix blanks. 400 μL of 50:50 ACN:IPA were manually added to matrix-blanks. The plate was covered and the samples vortexed and centrifuged for 5 minutes at >3000 rpm. 200 μL of the samples were transferred into a clean 96-well plate for analysis. Samples were analyzed on a Waters Acquity UPLC using a Higgins Analytical Clipeus C8 column ([…], 30×2.1 mm) and a gradient of either 70-95% or 60-95% (Mobile Phase A: 5 mM ammonium formate in 50:50:1 H2O:MeOH:formic acid; Mobile Phase B: 5 mM ammonium formate in 100:1 MeOH:formic acid) over 1.3 min at […] (column temperature 55° C.). Detection was based on electrospray ionization (ESI) in positive mode using a Sciex API5500 Mass Spectrometer.
The expression of hEPO in rats intravenously administered a nanoparticle composition at a dose of 0.2 mpk or 2.0 mpk was measured at 6 hours. Table 16 summarize the ratio of hEPO expression levels using various nanoparticle compositions as compared to the hEPO expression level using MC3 formulation and the lipid levels in the liver measured 48 hours after administration, as described above. Tables 17 and 18 summarize the lipid levels in the liver and spleen measured 48 hours after administration of Compounds 28, 33, 53, and 54. Liver and spleen levels represent the average values calculated for 3 rats in each group. As is shown in Tables 17 and 18, less than 10% of Compounds 28, 33, 53, and 54 remained in the liver after 48 hours, while greater than 60% of MC3 remained.
Table 19A summarizes the hEPO expression, IP-10 induction, liver and spleen levels, and alanine aminotransferase (ALT) and aspartate aminotransferase (AST) measured upon intravenous administration of formulations including Compounds 48, 49, and 50 to rat at 0.2 and 2 mpk and hEPO mRNA. hEPO concentrations were measured 6 hours after administration, while cytokine induction and liver and spleen levels were measured 48 hours after administration. hEPO and IP-10 concentrations are presented in pg/ml, while liver levels are provided in ng/g. ALT and AST levels are presented in international units.
The expression of hEPO and lipid levels in the liver and spleen in rats intravenously administered a nanoparticle composition at a dose of 0.2 mpk was measured at various time points. Compounds 18 and 25 were selected for comparison with MC3. Lipids were formulated according to the standard MC3 formulation described above. Rats were administered intravenously a single 0.2 mpk dose and expression monitored at 0.25, 0.5, 1, 2, 4, 8, 24, and 48 hours after administration.

[2] = Clinical chemistry and hematology in rat 48 h after intravenous 2 mpk dose; type: in vivo; settings: 48 h post dose
Protocol: Sample formulations of nanoparticle compositions including different lipids were administered intravenously to rat at a dose of 2 mpk. The expression of various clinical markers was evaluated at 48 h post dose and compared to that induced by administration of MC3 formulations or phosphate buffered saline (PBS).

[3] = Chemical stability of lipids in ethanol at room temperature and 37° C. (lipid purity); type: physicochemical
Outline: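 Lipid chemical stability was assessed as lipid purity after storage in ethanol at room temperature and at 37° C.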

luciferase (Luc) mRNA = assay: Luciferase expression after intramuscular administration to mice; type: in vivo; settings: for Novel lipid/MC3 expression ratio, i.m. Luc: 6 hr. time point, relative to MC3 formulation
Outline: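 CD-1 mice received lipid nanoparticle formulations of modified luciferase mRNA intramuscularly at 0.01 mpk. Bioluminescence total flux was measured, including at 6 h, and AUC was expressed relative to MC3 formulations. Immunogenicity was assessed in parallel.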

[4] = luciferase, intramuscular administration (Table 3H)

Compound	Total Flux, Femur (modified luciferase)	Total Flux, Liver (modified luciferase)	Total Flux, Lung (modified luciferase)	Total Flux, Spleen (modified luciferase)	% Lipid Remaining in liver, 48 h, 2 mpk ([1]; rats, 48 h) [%]	Concentration, Alanine aminotransferase [2]	Concentration, Aspartate aminotransferase [2]	Concentration, Lymphocytes [2]	Concentration, Monocytes [2]	Concentration, Neutrophils [2]	Lipid Purity, t = 96 h, 25° C. [3] [%]	Lipid Purity, t = 96 h, 37° C. [3] [%]	Lipid Purity, t = 0 [3] [%]	Novel lipid/MC3 expression ratio, i.m. Luc (luciferase (Luc) mRNA; intramuscular, luciferase)	also measured
CCCCCCCCCN(CCO)CCCCCCCC(=O)OC(CCCCCCCC)CCCCCCCC [Compound 3, Heptadecan-9-yl 8-((2-hydroxyethyl)(nonyl)amino)octanoate]	7.36E+06	1.39E+10	4.76E+07	1.47E+08	14	53.5	87.5	12051	2103	3388.5	–	–	–	–	–
CCCCCCCCCOC(=O)CCCCCCCN(CCO)CCCCCCCC(=O)OC(CCCCCCCC)CCCCCCCC [Compound 18, Heptadecan-9-yl 8-((2-hydroxyethyl)(8-(nonyloxy)-8-oxooctyl)amino)octanoate]	4.68E+06	2.76E+09	1.25E+07	5.15E+07	0.018	–	–	–	–	–	94.71	95.01	94.37	2.01	–
CCCCCC/C=C\COC(=O)CCCCCCCN(CCO)CCCCCCCC(=O)OC(CCCCCCCC)CCCCCCCC [Compound 24, Heptadecan-9-yl (Z)-8-((2-hydroxyethyl) (8-(non-2-en-1-yloxy)-8-oxooctyl)amino)octanoate]	4.54E+06	4.19E+09	1.71E+07	8.78E+07	0.016	51.5	90	14100	1834	1790.5	–	–	–	1.10	Novel lipid/MC3 ratio, i.m. Luc (luciferase (Luc) mRNA; Table 3G, intramuscular, luciferase, 6 hr. timepoint, relative to MC3): 1.10
CCCCCCCCCCCOC(=O)CCCCCN(CCO)CCCCCCCC(=O)OC(CCCCCCCC)CCCCCCCC [Compound 25, Heptadecan-9-yl 8-((2-hydroxyethyl)(6-oxo-6-(undecyloxy)hexyl)amino)octanoate]	4.40E+06	2.41E+09	1.51E+07	3.11E+07	1.32	52	124.5	15924	2122	1998	96.23	96.13	95.58	–	–
CCCCCCCCCOC(=O)CCCN(CCO)CCCCCCCC(=O)OC(CCCCCCCC)CCCCCCCC [Compound 26, Heptadecan-9-yl 8-((2-hydroxyethyl)(4-(nonyloxy)-4-oxobutyl)amino) octanoate]	4.67E+06	2.90E+09	1.18E+07	1.56E+07	20	–	–	–	–	–	97.38	95.72	98.64	–	–
CCCCCCCCCOC(=O)CCCCCCCN(CCO)CCCCCCCOC(=O)C(CCCCCCCC)CCCCCCCC [Compound 30, 7-((2-Hydroxyethyl)(8-(nonyloxy)-8-oxooctyl)amino)heptyl 2-octyldecanoate]	6.38E+06	2.68E+09	1.02E+07	3.55E+07	<0.01	56	95	10408.5	877	3195	–	–	–	–	–
CCCCCCCCC(C)OC(=O)CCCCCCCN(CCO)CCCCCCCC(=O)OC(CCCCCCCC)CCCCCCCC (centres unmarked) [Compound 48, decan-2-yl 8-((8-(heptadecan-9-yloxy)-8-oxooctyl)(2-hydroxyethyl)amino)octanoate]	–	1.08E+10	3.31E+07	3.49E+08	7.22	–	–	–	–	–	–	–	–	0.31	–
CCCCCC=CCC=CCCCCCCCCC(CCCCCCCCC=CCC=CCCCCC)OC(=O)CCCN(C)C (centres unmarked) [MC3, heptatriaconta-6,9,28,31-tetraen-19-yl 4-(dimethylamino)butanoate, reference compound]	2.56E+06	2.57E+09	1.27E+07	2.85E+07	87	339	325	19976	1429	4962.5	–	–	–	–	% dose remaining, liver, 24 h ([1]; Table 19B, liver, 24 h): 44%; % lipid remaining in liver after 48 hours ([1]; liver, 48 hours): 87%; % remaining dose in liver, 48 h ([1]; rats, 48 h): 74%; Lipid remaining in the liver after 48 hours ([1]; rats, intravenous, 0.2 mpk or 2.0 mpk, 48 hours): greater than 60%; Total flux 6 hours after intramuscular administration, 0.01 mpk Dose (luciferase (Luc) mRNA; Luc mRNA, intramuscular, 0.01 mpk, 6 hours): 3.23E+07 p/s; AUC (luciferase (Luc) mRNA; [4]): 5.88E+08 p/s*h; Lipid/MC3 AUC (luciferase (Luc) mRNA; [4]): 1
Nonyl 8-((6-(heptadecan-9-yloxy)-6-oxohexyl)(2-hydroxyethyl)amino) octanoate [Compound 27]	2.00E+06	2.16E+09	6.35E+06	3.78E+06	–	–	–	–	–	–	–	–	–	3.94	–
